This is an account of results in PMC8044192 (Scientific Reports, 2021).

A short description of data set [1]: Study 2: body weight and food intake in DIO mice, 14 days of treatment then 6 days of wash-out. It counts as in vivo, C57BL/6J mice. Conditions: linagliptin 3 mg/kg or Y2R agonist 3 or 30 nmol/kg s.c. once daily for 14 days. The procedure: (§1) The Danish Animal Experiments Inspectorate approved all experiments which were conducted using internationally accepted principles for the use of laboratory animals (license #2013-15-2934-00784). The study was carried out in compliance with the ARRIVE guidelines. 99 C57BL/6J mice were from Janvier Labs (Le Genest Saint Isle, France) and housed in a controlled environment (12 h light/dark cycle, lights on at 3 AM, 21 ± 2 °C, humidity 50 ± 10%). Each animal was identified by an implantable subcutaneous microchip (PetID Microchip, E-vet, Haderslev, Denmark). Mice arrived at 5 weeks of age and were made diet-induced obese (DIO) by offering ad libitum access to tap water and high-fat diet (5.15 kcal/g; 60 kcal-% fat, 20 kcal-% carbohydrate, 20% kcal-% protein; D12492, Ssniff, Soest, Germany) for 26–27 weeks before study start. The mice were kept on the diet throughout the study.
(§2) DIO mice were randomized into individual treatment groups (n = 9–10 per group) based on body weight measured 3 days prior to initiation of drug treatment. Vehicle was phosphate-buffered saline added 5% mannitol. […] All drugs were administered once daily at 1 h before lights off. The first dose was given on day 0. Body weight and food intake was monitored daily during the treatment period.

Data set [2] can be described thus: Oral glucose tolerance test in DIO mice. The class given is in vivo, C57BL/6J mice. Conditions: study 2; treatment day 12; 4 h fast; 2 g/kg oral glucose; blood glucose 0–240 min; compared to vehicle dosing. The procedure: In study 2, an oral glucose tolerance test (OGTT) was performed one week prior to treatment start (day -7) and on treatment day 12. Animals were fasted for 4 h prior to OGTT. At t = 0 an oral glucose load (2 g/kg glucose; 200 mg/mL, Fresenius Kabi, Sweden) was administered via a gastrically placed tube. Blood samples for measuring blood glucose were collected from the tail vein at t = 0, 15, 30, 60, 120, 180, 240 min. A pre-OGTT blood sample was collected at − 60 min (OGTT on day − 7) and − 240 min (OGTT on treatment day 12). Glucose area under the curve (AUC) calculations were determined as total AUC from the sampling period of 0 to 240 min.

Data set [3] in a line: Study 1: body weight and food intake in DIO mice, linagliptin monotreatment for 14 days. The class given is in vivo, C57BL/6J mice. The following applies: linagliptin 3 mg/kg/day s.c. The procedure:
as §1, §2

A short description of data set [4]: Plasma analytes in DIO mice (active GLP-1, GIP, insulin, metabolic markers). The class given is in vivo, C57BL/6J mice. Conditions: study 1, linagliptin 3 mg/kg/day s.c., 4 h post-dosing. As for the experimental part: Terminal cardiac blood samples were collected in EDTA-coated tubes with (for GLP-1 and GIP analysis) or without (for DPP-IV enzyme analysis) 10 µl DPP-IV inhibitor/ml blood (Millipore, Copenhagen, Denmark) prior to sampling. Plasma was separated by centrifugation (3000 × g for 10 min at 4 °C) and immediately frozen on dry ice and stored at − 80 °C until further analysis. DPP-IV enzyme catalytic activity was determined as reported previously. Active GLP-1 and GIP levels were assessed by ELISA (#K150JWC, MesoScale Discovery, Rockville, MD; #27702, IBL, Fujioka, Japan) according to the manufacturer’s instructions. Plasma levels of insulin were measured by ELISA (#K152BZC, MesoScale Discovery, Rockville, MD), according to the manufacturer’s instructions.

The nature of data set [5]: Linagliptin exposure in plasma by LC-MS/MS. The class given is in vivo, C57BL/6J mice. Conditions: DIO mice, 3 mg/kg/day s.c. once daily, day 14, before (approx. 24 h after previous dose) and 4 h after last dose.
A further data set deals with T1, DPP-IV (Homo sapiens, UniProt P27487).
T1 construct: Human plasma was used as source of endogenous DPP-IV; from tissue; host or cells: human EDTA-plasma from healthy adult donors
T1 sequence (P27487 39-766 limits assumed): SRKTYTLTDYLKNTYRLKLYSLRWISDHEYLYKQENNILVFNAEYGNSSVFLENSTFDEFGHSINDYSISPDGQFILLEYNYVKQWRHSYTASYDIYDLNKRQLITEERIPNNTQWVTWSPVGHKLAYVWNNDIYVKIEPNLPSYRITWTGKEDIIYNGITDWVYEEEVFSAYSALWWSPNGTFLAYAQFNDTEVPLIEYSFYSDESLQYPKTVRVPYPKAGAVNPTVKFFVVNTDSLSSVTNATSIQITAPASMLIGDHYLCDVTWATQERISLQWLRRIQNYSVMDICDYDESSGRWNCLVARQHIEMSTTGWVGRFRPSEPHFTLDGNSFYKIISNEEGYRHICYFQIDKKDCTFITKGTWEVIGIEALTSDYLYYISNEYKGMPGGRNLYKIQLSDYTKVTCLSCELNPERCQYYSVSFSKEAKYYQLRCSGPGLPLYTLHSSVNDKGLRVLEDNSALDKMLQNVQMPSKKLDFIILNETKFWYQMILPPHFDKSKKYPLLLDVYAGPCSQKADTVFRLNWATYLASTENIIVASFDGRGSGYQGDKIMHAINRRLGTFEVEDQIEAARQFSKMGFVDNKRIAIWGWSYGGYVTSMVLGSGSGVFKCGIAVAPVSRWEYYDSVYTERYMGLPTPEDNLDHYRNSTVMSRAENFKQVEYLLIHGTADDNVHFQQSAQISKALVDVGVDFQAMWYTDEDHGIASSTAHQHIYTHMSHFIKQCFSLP
In words: Degradation of synthetic NPY1–36 and PYY1–36 in human plasma (control samples). Conditions: 30 pmol peptide in 85 µl PBS + 5 µl human EDTA-plasma, 37 °C, no linagliptin, MALDI-TOF-MS. The class given is in vitro ADME.

Data set [6] concerns dipeptidyl peptidase IV (DPP-IV). The following applies: in the circulation; inactivation by DPP-IV; cited from earlier work. The text has this:
Defective pancreatic β-cell function is a key pathological hallmark in type 2 diabetes (T2D). Because progressive loss of β-cell insulin secretory capacity is associated with worsening hyperglycemia, targeting intrinsic β-cell activity is considered essential in T2D management. A canonical role of the gut-derived incretin hormone glucagon-like peptide-1 (GLP-1) is potentiation of glucose-stimulated insulin secretion by activation of GLP-1 receptors in islet β-cells. The incretin effect is estimated to account for approximately 50–70% of total insulin secreted following oral glucose administrat ...

Consider `CC#CCn1c(N2CCC[C@@H](N)C2)nc2c1c(=O)n(Cc1nc(C)c3ccccc3n1)c(=O)n2C` [linagliptin], for which the food intake entry in data set [1] was “did not influence food intake”. The oral glucose tolerance result in data set [2] is “significantly improved glucose tolerance”. Further, the food intake result in data set [3] (14 days) is on record as “essentially unaffected”. The “weight loss compared to vehicle controls” value in data set [3] (14 days of treatment, p < 0.05) came out at 2.8%. Besides, the “terminal plasma insulin levels” value in data set [4] (day 14) is reported as “unaffected”. Moreover, in data set [4] (terminal, 14 days), the “plasma TNF-α concentration” value is listed as “significantly reduced”, the plasma pancreatic polypeptide result is “unaffected”, the plasma resistin concentration result is given as “significantly reduced” and the “plasma total PYY” value was “unaffected”. In data set [5], the plasma linagliptin exposure was ~ 200 nM.

In the case of neuropeptide Y [NPY], the “fraction of NPY processed by DPP-IV” value with DPP-IV (8 h) was “approximately two-thirds”.

For glucagon-like peptide-1 [GLP-1_7–36], in data set [6], the circulatory half-life result was “approximately 1 min”.

As to “PYY: synthetic human full-length PYY1–36 used as DPP-IV substrate [peptide YY]”, in the data set with DPP-IV (18 h), the “fraction of PYY processed” value was 30%-50%.
